Measurements as given in article PMC7557402, “Evaluation of Nucleoside Analogs as Antimicrobials Targeting Unique Enzymes in Borrelia burgdorferi” (Pathogens, 2020).
Values joined by “and” are separate entries in the source; they are usually repeats but may differ in a detail not shown here. Equal entries are not always repeated. Where two headings read alike, the source gives them in different places.

Tests used:
Pfs [1] = molecular target: T1, Pfs (Borreliella burgdorferi, UniProt O50162); details: reported previously, ref Cornell et al., 2020 [18], read-out: Km (Michaelis constant); cited from earlier work
Bgp [2] = molecular target: T2, Bgp (Borreliella burgdorferi, UniProt Q9F952); parameters: method as in Cornell et al., 2020 [18]; details: reported previously, ref Cornell et al., 2020 [18], read-out: Km (Michaelis constant); cited from earlier work
Bgp [3] = molecular target: T2, Bgp; test: MTAN spectrophotometric activity assay (specific activity, Km); format: biochemical, Borrelia burgdorferi; details: for Specific Activity: pH 7, 1 U = 1 µmol MTA hydrolyzed per minute; for % Max Specific Activity: relative to MTA as a substrate
Description: (§1) Recombinant MTANs were expressed and purified as previously described. Briefly, overnight 10 mL cultures of recombinant E. coli BL21(DE3) pLysS cells containing engineered pET30a expression plasmids for Bgp, MtnN or Pfs were grown at 37 °C with shaking (150 rpm) in LB broth supplemented with 50 µg/mL kanamycin and 0.5% glucose. The culture was diluted 1:50 in fresh medium and incubated at 37 °C with shaking (150 rpm) until the absorbance (600 nm) reached 0.4–0.6. Protein expression was induced with the addition of isopropyl β-D-1-thiogalactopyranoside (IPTG) to a final concentration of 1 mM and continued overnight incubation with shaking at 30 °C. Cells were harvested by centrifugation (10,000× g/15 min), and the pellet was washed once with ice-cold lysis buffer (50 mM sodium phosphate, pH = 8.0, 300 mM NaCl, 10 mM imidazole, 2mM β mercaptoethanol). Harvested cell pellets were resuspended in 10 mL fresh lysis buffer and lysed by sonication on ice using a Misonix Sonicator 300 (power setting 7, pulse 30 s, 1 min cooling with total sonication for 2.5 min). The cell lysates were centrifuged at 10,000× g for 15 min at 4 °C to remove debris, and the lysate was further filtered through a […] syringe filter to obtain a clear extract. Recombinant N-terminal hexahistidine tagged proteins were purified from the lysate using HisPur™ affinity columns (Thermo Scientific) according to the manufacturer’s specifications, and specifically eluted with 250 mM imidazole containing buffer (pH = 7). Eluted materials were analyzed by SDS-PAGE and Coomassie blue staining and found to be >95% homogeneous. Enzyme concentrations were determined using UV scans on a Cary100 spectrophotometer (Agilent) to determine the absorbance at 280 nm and applying extinction coefficients (0.1%) of 0.594 (Bgp), 0.637 (MtnN), and 0.404 (Pfs). Enzyme stocks (1 mg/mL) were prepared in 20% glycerol and stored at −80 °C.
(§2) Enzyme specific activities were determined using previously reported optimal pH conditions (50 mM sodium phosphate, pH = 7, for Bgp, MtnN; 50 mM sodium phosphate-citrate, pH = 5, for Pfs) and a spectrophotometric activity assay that measures the decrease in UV absorbance at 275 nm that occurs when MTA is cleaved to 5-methylthioribose and adenine (ε275 = 1.6 mM^−1cm^−1). The extinction coefficients for cleavage of other nucleosides were experimentally validated and found to be the same for MSeA, FSBA, and IADO (ε275 = 1.6 mM^−1cm^−1). Due to the added UV absorbance imparted by the 5′ purine group found in PurTA, the enzyme reactions were followed spectrophotometrically at 260 nm using the experimentally determined extinction coefficient of ε260 = 5.6 mM^−1cm^−1. Enzyme specific activities for MTA were generally 1–2 U/mg (1 U = µmol MTA hydrolyzed/min). The enzyme specific activities for other nucleosides were determined and reported in U/mg and as the % max specific activity (relative to MTA at 100%).
(§3) Kinetic constants have been previously reported for MTA [18]. As MSeA was also an efficient substrate for the B. burgdorferi nucleosidases, kinetic constants were determined using the activity assay described above, varying the nucleoside concentrations from 1 to 20 µM, and fitting the data on substrate-velocity plots to the Michaelis–Menten equation using GraphPad Prism (version 6):(1) Vo=Vmax[S]/Km+[S]

Pfs [4] = molecular target: T1, Pfs; test: as above; format: biochemical, Borrelia burgdorferi; details: for Specific Activity: pH 5, 1 U = 1 µmol MTA hydrolyzed per minute; for % Max Specific Activity: relative to MTA as a substrate
Description: as §1, §2, §3

MtnN [5] = molecular target: T3, MtnN (Borreliella burgdorferi, UniProt O50860); test: as above; format: biochemical, Borrelia burgdorferi; details: for Specific Activity: pH 7, 1 U = 1 µmol MTA hydrolyzed per minute; for % Max Specific Activity: relative to MTA as a substrate
Description: as §1, §2, §3

MtnN [6] = molecular target: T3, MtnN; details: reported previously, ref Cornell et al., 2020 [18], read-out: Km (Michaelis constant); cited from earlier work
[7] = tested on: B. burgdorferi strain N40; test: microbe, parasite or virus in culture; format: cell-based, Borrelia burgdorferi; details: 24 h treatment; calculated from graphs
Description: B. burgdorferi N40 strain carrying a firefly luciferase gene (Bbluc), which is a derivative of the N40D10/E9 clone, was used in this study and is labeled as N40 throughout. N40 was cultured at 33 °C in Barbour-Stoenner-Kelly-II (BSK-II) medium supplemented with 6% rabbit serum (BSKII-RS). Bacterial counts were determined under 400× magnification using a hemocytometer and a dark field microscope.
The luciferase expressing B. burgdorferi N40 strain was grown to a density of ~10^8 spirochetes/mL and divided into two aliquots. One aliquot was incubated at 60 °C for 30 min to kill the spirochetes. […] The culture was mixed with the substrate by shaking in the dark, incubated at 37 °C for 5 min in a Spectramax M2 microplate reader (Molecular Devices, San Jose, CA, USA) and the bioluminescence measured. […]
Nucleosides and nucleoside analogs were prepared as sterile 1 mM stock solutions in distilled water (MSeA, IADO, FSBA, and dEt-ImmA) or in DMSO (PurTA). […] Photon emission due to luciferase activity was measured at three time points, after: (a) 24 h, (b) 72 h, and (c) 7 days of treatments to observe the effect of inhibitors on B. burgdorferi culture. At the end of each time point, bioluminescence was measured as described above. […]

B. burgdorferi N40 [8] = test: Dark-field microscopy of treated cultures (motility); format: cell-based, Borrelia burgdorferi; details: 24 h treatment
Description: The infectious N40 B. burgdorferi culture was treated with ten 2-fold serial dilutions of ampicillin overnight. Stocks of ampicillin at 200 µg/mL to 0.385 µg/mL concentrations were used to prepare different dilutions for treatment (final 10 to 0.0195 µg/well). The bioluminescence standard curve (Figure 3) was used to calculate the percentage of physiologically compromised B. burgdorferi after treatment with different ampicillin concentration for 24 h. Ampicillin treatment affected the viability of the spirochetes (Figure 4A). […] A prolonged incubation could increase killing by ampicillin at lower doses of drug. In addition to bioluminescence, the cultures were also observed under dark-field microscopy to examine viability.

Bgp [9] = molecular target: T2, Bgp; parameters: method as in Cornell et al., 2020 [18]; details: reported previously, ref Cornell et al., 2020 [18], cited from earlier work
B. burgdorferi N40 [10] = test: Subculture without inhibitor after 7 days of treatment: bacteriostatic versus bactericidal; format: cell-based, Borrelia burgdorferi; details: for Inhibitor Activity: 7 days of treatment, then subculture
Description: After 7 days of treatment, a 5 µL aliquot from each treatment tube (and untreated control) was added to 1 mL of BSKII-RS medium to allow any remaining viable spirochetes in the sample to grow. After incubation for 7–21 days at 33 °C, the survival of the spirochetes was determined using dark-field microscopy to observe motility and by employing bioluminescence measurements to assess vitality of the recovered culture.
To further differentiate between bacteriostatic versus bactericidal activities of MTAN inhibitors, we subcultured drug treated spirochetes in the absence of inhibitors to recover any live B. burgdorferi remaining after seven days of inhibitor treatment (summarized in Table 4). If non-motile spirochetes from treated cultures were able to grow back, the inhibitor was determined to have a bacteriostatic effect at the selected concentration. […] Spirochete survival was determined by both dark-field microscopy and bioluminescence measurements. Microscopic examination allowed assessment of motility of the spirochetes whereas bioluminescence assays assessed recovery and viability of B. burgdorferi cells. […] By comparison, a reduction in bioluminescence compared to the untreated control was observed after treatment with dEt-ImmA at a 0.4 µM or greater concentration. […] After seven days of treatment, live spirochetes were only recovered when concentrations of ≤0.4 µM were used for dEt-ImmA and IADO.

Pfs [11] = molecular target: T1, Pfs; parameters: method as in Cornell et al., 2020 [18]; details: reported previously, ref Cornell et al., 2020 [18], cited from earlier work
MtnN [12] = molecular target: T3, MtnN; parameters: method as in Cornell et al., 2020 [18]; details: reported previously, ref Cornell et al., 2020 [18], cited from earlier work
[13] = tested on: Borrelia MTANs (Bgp, MtnN, Pfs); test: MTAN activity/kinetics, across the nucleosidases; format: biochemical
Description: as §2, §3
For the other compounds, inhibition constants (Ki’s) were determined as previously described, using an MTA concentration of 100 µM and varying the inhibitor concentration from 0 to 100 µM. The inhibited velocity (Vo’) and uninhibited velocity (Vo) values were determined, and the ratio of Vo’/Vo plotted as a function of inhibitor concentration. Ki values were calculated from these plots by fitting the data to the equation for competitive inhibition using GraphPad Prism:(2) Vo^′/Vo=Km+[S]/Km+[S]+(Km[I]/Ki)

E. coli MTAN = tested on: E. coli MTAN; parameters: method as in PMID 8941345; details: radioactive enzyme assay; cited from earlier work
[14] = read-out: Ki (inhibition constant)
[15] = nucleoside 1 to 20 µM, read-out: Km (Michaelis constant)

T1 sequence (O50162 entry or part of it): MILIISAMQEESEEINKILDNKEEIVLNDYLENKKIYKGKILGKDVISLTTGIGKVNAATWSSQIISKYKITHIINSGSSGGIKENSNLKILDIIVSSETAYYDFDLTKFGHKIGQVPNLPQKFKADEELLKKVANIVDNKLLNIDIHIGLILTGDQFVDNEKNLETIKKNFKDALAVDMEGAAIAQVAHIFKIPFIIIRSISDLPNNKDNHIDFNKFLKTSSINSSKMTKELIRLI
T2 sequence (Q9F952 entry or part of it): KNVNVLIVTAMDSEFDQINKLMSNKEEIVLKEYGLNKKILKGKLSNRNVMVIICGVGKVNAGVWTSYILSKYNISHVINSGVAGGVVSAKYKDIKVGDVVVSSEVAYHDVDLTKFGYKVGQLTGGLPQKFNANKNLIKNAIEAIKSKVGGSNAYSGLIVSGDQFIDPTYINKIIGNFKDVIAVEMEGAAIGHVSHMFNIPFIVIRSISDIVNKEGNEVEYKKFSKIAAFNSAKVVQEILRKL
T3 sequence (O50860 entry or part of it): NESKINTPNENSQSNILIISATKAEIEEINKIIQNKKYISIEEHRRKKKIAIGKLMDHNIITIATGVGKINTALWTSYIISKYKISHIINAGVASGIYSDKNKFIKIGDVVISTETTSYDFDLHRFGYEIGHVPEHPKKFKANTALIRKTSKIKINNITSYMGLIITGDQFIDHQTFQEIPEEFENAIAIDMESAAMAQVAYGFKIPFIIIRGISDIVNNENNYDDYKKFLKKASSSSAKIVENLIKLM

5′-deoxy-5′-methylthioadenosine [MTA, reference compound]
Km (Pfs [1]): 0.61 µM
Km (Bgp [2]): 0.49 µM
Specific Activity (Bgp [3]): 1.00 U/mg
% Max Specific Activity (Bgp [3]): 100%
Specific Activity (Pfs [4]): 1.70 U/mg
% Max Specific Activity (Pfs [4]): 100%
Specific Activity (MtnN [5]): 1.00 U/mg
% Max Specific Activity (MtnN [5]): 100%
Km (MtnN [6]): 9.09 µM

CC1(C)S[C@@H]2[C@H](NC(=O)[C@H](N)c3ccccc3)C(=O)N2[C@H]1C(=O)O [ampicillin, reference compound]
IC50 (percent of physiologically compromised B. burgdorferi) [7]: ~ 0.31 µg/µL of culture
concentration at which majority of the spirochetes were non-motile with stripping of the outer membrane (B. burgdorferi N40 [8]): ≥ 0.625 µg/well

CCC[C@H]1N[C@@H](c2c[nH]c3c(N)ncnc23)[C@H](O)[C@@H]1O [dEt-ImmA, 5′-deoxy-5′-ethyl-immucillin A]
Ki (Bgp [9]; [14]): 2.48 nM
Ki’ (delayed onset inhibition constant) (Bgp [9]): 0.35 ± 0.02 nM
recovery of live spirochetes (B. burgdorferi N40 [10]; 2 µM and 10 µM, 21 days of subculture in media lacking MTAN inhibitors): no live spirochetes were recovered
Inhibitor Activity (B. burgdorferi N40 [10]; Dose: 2 µM, 10 µM): Bactericidal
concentration giving a reduction in bioluminescence compared to the untreated control (B. burgdorferi N40 [10]; after 12 days of incubation of subcultured bacteria): ≥ 0.4 µM
concentrations at which live spirochetes were recovered (B. burgdorferi N40 [10]; after seven days of treatment): ≤ 0.4 µM
concentrations that exert bactericidal activity (B. burgdorferi N40 [10]; after seven days of treatment, bacteriostatic at lower concentrations): ≥ 1 µM
Ki (Pfs [11]; [14]): 10.5 nM
Ki’ (delayed onset inhibition constant) (Pfs [11]): 0.53 ± 0.15 nM
Ki (MtnN [12]; [14]): 1.48 nM
Ki’ (delayed onset inhibition constant) (MtnN [12]): 0.58 ± 0.05 nM

5′-deoxy-5′-methylselenoadenosine [MSeA]
specific activities higher than MTA ([13]; Bgp and MtnN): 50–79%
Km ([13]; range over all three nucleosidases): 1.5 to 2.1 µM and 1.5 to 2 µM
IC50 (E. coli MTAN): ~4000 nM
Inhibitor Activity (B. burgdorferi N40 [10]; Dose: All doses (0.0032–10 µM)): Bacteriostatic
recovery of spirochetes (bioluminescence comparable with untreated controls) (B. burgdorferi N40 [10]; all concentrations, 12 days of incubation of subcultured bacteria): fully recovered
Km (Bgp [3]; [15]): 1.62 µM
Specific Activity (Bgp [3]): 1.79 U/mg
% Max Specific Activity (Bgp [3]): 179%
Km (Pfs [4]; [15]): 2.12 µM
Specific Activity (Pfs [4]): 0.27 U/mg
% Max Specific Activity (Pfs [4]): 16%
Km (MtnN [5]; [15]): 1.5 µM
Specific Activity (MtnN [5]): 1.50 U/mg
% Max Specific Activity (MtnN [5]): 150%
